Source: patent publication EP3727043B1 (Golden Gait Biotech, S.L., priority 2017, dated 2019)
Where two headings read alike, the source gives them in different places.

Tests used:
[1] = tested on: rats with a unilateral 6-hydroxydopamine lesion; assay: LIDs in rats with a unilateral 6-hydroxydopamine lesion; type: in vivo; settings: parkinsonian rat model of LIDs
β2* nAChR = β2* nAChR (Homo sapiens, UniProt P17787); settings: nAChR subtype: β2; cited from earlier work
α7 nAChR = α7 nAChR (Homo sapiens, UniProt P36544); settings: nAChR subtype: α7; cited from earlier work
[2] = cited from earlier work
[3] = cited from earlier work; remark: listed apart in the source
[4] = tested on: patients with idiopathic PD and levodopa induced dyskinesias (LIDs)
Procedure: At the time the study was performed (2009), there was no FDA accepted instrument for measuring treatment efficacy for LIDs. Therefore, several secondary objectives were utilized to assess efficacy including the Unified Dyskinesia Rating Scale (UDysRS).
A total of 65 male and female subjects with idiopathic PD with LIDs were randomized in the study. The study consisted of 4 phases (FIG. 6A): screening phase (up to 3 weeks), double-blind treatment phase (10 weeks), taper phase (2 weeks), and follow-up phase (2 weeks). The approximate duration of the study for each subject was 17 weeks. […] During the double-blind treatment phase, dosing was begun at Visit 0 at 1 mg every 6 hours (total daily dose [TDD] = 4 mg/day) and escalated upwards at 2-week intervals as follows: 2 mg every 6 hours (TDD = 8 mg/day) at Visit 1 (Week 2); 4 mg every 6 hours (TDD = 16 mg/day) at Visit 2 (Week 4); 6 mg every 6 hours (TDD = 24 mg/day) at Visit 3 (Week 6). Subjects were maintained on 24 mg/day for 4 weeks. The subsequent taper phase (2 weeks total), beginning at Visit 4 (Week 10), consisted of 9 days of drug taper and 5 days off drug prior to Visit 5 (final safety visit). […] Ondansetron was provided by the sponsor and dispensed with each dose escalation step with instructions to use it for nausea and vomiting only during the first 4 days following dose initiation or escalation. […] No other dose down-titration was allowed. Table 5. Dose Escalation Schedule
A total of 65 patients with idiopathic PD and levodopa induced dyskinesias (LIDs) were randomized. Patients were required to have a diagnosis of idiopathic PD and be within a Hoehn & Yahr Stage II - IV while in a peak "ON" state(levodopa in a therapeutic range). They had to have moderate to severely disabling LIDs for at least 25% of the waking day, as determined by Questions 32 and 33 in Part II of the UPDRS and a Mini-Mental State Examination (MMSE) score of ≥26. Patients with atypical Parkinson disorders, prior deep brain stimulation (DBS), unstable angina, a history of ventricular arrhythmias, or active peptic ulcer or a history of schizophrenia, schizoaffective disorder, or bipolar disease were excluded. Patients who actively smoked were also excluded. Table 9: Demographics
The drug, or a placebo identical in appearance and packaging, was administered orally 4 times a day in a blinded fashion. Patients were examined while in an "ON" state, when levodopa was in a therapeutic range. During the treatment phase, dosing was begun at 1 mg every 6 hours (total daily dose=4 mg/day) and escalated upwards at 2-week intervals as follows: 2 mg every 6 hours at Visit 1; 4 mg every 6 hours at Visit 2; 6 mg every 6 hours at Visit 3. Patients were maintained on 24 mg/day for 4 weeks. All patients, study site personnel, raters and the sponsor were blinded to treatment assignment.
The original UPDRS scale was used. […] In the UPDRS Part II, Question 13 is on Falling unrelated to Freezing. […] In Part II, Question 14 is on Freezing when Walking. This is a 5-point item and has two variables freezing and falls. […] Questions 13 and 14 were compared separately (Table 11). […] Table 10: UPDRS Part II (ADL), UPDRS Part III (Motor Examination)
LIDs were assessed by the UDysRS, the main measure of LIDs (Table 12). […] The study was conducted in accordance with the Declaration of Helsinki and Good Clinical Practice Guidelines. All sites received approval from an institutional review board and written informed consent was obtained from each patient prior to participation. Table 12. Unified Dyskinesia Rating Scale (UDysRS)
All hypotheses were tested using 2-sided tests with alpha set at the 0.050 level of significance. In general, efficacy data were summarized by treatment group, and safety data were summarized by treatment group and overall.

[5] = tested on: α4β2* nAChR knockout mice
Description: Multiple receptors exist throughout the body with α1β1*, α3β4* and α7 nAChRs being the major subtypes in the peripheral nervous system and α4β2*, α6β2* and α7 nAChRs the primary ones in the brain. The *asterisk denotes the presence of other nAChR subunits in the receptor.

[6] = tested on: patients with idiopathic PD and levodopa induced dyskinesias (LIDs); settings: for worsening of Parkinson symptoms (UPDRS Part III, Hoehn and Yahr scales): during the study
Procedure: Efficacy was measured with the Unified Dyskinesia Rating Scale (UDysRS), a semi- quantitative assessment, FDA-validated instrument to assess gait, balance and dyskinesia in PD. […] Dosing was begun at 1 mg every 6 hours to a final dose of 24 mg per day.
All hypotheses were tested using 2-sided tests with alpha set at the 0.050 level of significance. In general, efficacy data were summarized by treatment group, and safety data were summarized by treatment group and overall. In all analyses, assumptions such as normality and homogeneity of variance were examined prior to conducting the proposed parametric statistical procedures. Categorical variables were analyzed by Fisher's exact 2- tailed test and continuous variables were tested under 2-sample t-tests. The equality of variances was examined using an F-test before applying the 2-sample t-test.

rats and mice = settings: oral application, injection and slow-release minipumps
[7] = in vivo; cited from earlier work
[8] = Phase 2 data used for sample size calculation

β2* nAChR, sequence (P17787 26-502): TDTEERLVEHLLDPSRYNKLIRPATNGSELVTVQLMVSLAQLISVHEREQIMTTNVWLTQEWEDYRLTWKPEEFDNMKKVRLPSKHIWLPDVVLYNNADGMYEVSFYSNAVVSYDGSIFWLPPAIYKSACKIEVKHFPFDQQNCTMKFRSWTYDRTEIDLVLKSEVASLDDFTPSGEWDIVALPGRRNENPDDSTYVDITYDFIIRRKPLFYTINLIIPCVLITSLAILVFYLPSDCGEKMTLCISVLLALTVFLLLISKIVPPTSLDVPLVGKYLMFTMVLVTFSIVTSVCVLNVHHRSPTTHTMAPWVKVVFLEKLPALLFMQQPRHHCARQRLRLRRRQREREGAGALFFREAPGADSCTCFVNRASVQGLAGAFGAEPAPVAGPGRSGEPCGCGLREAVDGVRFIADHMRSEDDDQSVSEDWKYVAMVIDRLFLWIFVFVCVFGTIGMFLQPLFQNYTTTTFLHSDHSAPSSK
α7 nAChR, sequence (P36544 23-502): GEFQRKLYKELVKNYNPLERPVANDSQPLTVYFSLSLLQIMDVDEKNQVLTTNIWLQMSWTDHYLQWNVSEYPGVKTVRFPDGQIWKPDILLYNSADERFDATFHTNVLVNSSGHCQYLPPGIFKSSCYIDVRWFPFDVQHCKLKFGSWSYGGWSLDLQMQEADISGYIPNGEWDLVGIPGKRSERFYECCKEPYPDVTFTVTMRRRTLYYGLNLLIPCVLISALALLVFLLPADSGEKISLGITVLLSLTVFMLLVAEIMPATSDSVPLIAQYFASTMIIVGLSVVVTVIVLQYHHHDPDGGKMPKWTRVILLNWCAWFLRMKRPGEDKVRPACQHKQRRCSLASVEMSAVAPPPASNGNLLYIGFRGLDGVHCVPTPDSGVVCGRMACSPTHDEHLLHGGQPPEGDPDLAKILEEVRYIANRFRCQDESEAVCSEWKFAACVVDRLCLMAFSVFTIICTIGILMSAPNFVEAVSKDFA

**Q.** For `c1cncc(OC[C@@H]2CCN2)c1` [A-85380], which “reduction of LIDs” value [1] is on record?
**A.** Its value is “reduced LIDs to varying extents”.

**Q.** For `Cc1ncccc1OC[C@@H]1CCCN1` [ABT-089], which Ki (β2* nAChR) is on record?
**A.** The Ki was 17 nM.

**Q.** With `c1cc2cc(-c3ccc(O[C@H]4CN5CCC4CC5)nn3)ccc2[nH]1` [ABT-107] as the compound, how does the Ki (α7 nAChR) read?
**A.** Its Ki is 0.5 nM.

**Q.** For `Clc1cc(N2C[C@@H]3CN[C@@H]3C2)cnc1Cl` [ABT-894], which Ki (β2* nAChR) is on record?
**A.** Its Ki is 0.3 nM.

**Q.** Which Ki (α7 nAChR) does the source give for `Cc1ccc(-c2ccc(OC3CN4CCC3CC4)cn2)cc1` (centres unmarked) [AQW051] here?
**A.** The Ki was 27 nM.

**Q.** Which Ki (β2* nAChR) does the source give for `O=C(c1ccc(Cl)o1)N1CC2CNCC2C1` (centres unmarked) [AZD 1446] here?
**A.** Its Ki is 30 nM.

**Q.** Which solubility in water [2] does the source give for `C[C@@](Cc1ccc(O)c(O)c1)(NN)C(=O)O` [Carbidopa, (-)-L-α-hydrazino-α-methyl-β-(3,4-dihydroxybenzene) propanoic acid monohydrate] here?
**A.** Its solubility in water is “slightly soluble in water”.

**Q.** What about the “reduction of the amount of levodopa required to produce a given response” value ([3]; in vivo) of the same compound?
**A.** Its value is “about 75%”.

**Q.** Which solubility in water [2] does the source give for `N[C@@H](Cc1ccc(O)c(O)c1)C(=O)O` [Levodopa, (S)-2-amino-3-(3,4-dihydroxyphenyl) propanoic acid] here?
**A.** The solubility in water was “slightly soluble in water”.

**Q.** What about the “plasma half-life of levodopa” value ([3]; without carbidopa) of the same compound?
**A.** The value was 50 min.

**Q.** Which results are given for `CN1CCC[C@H]1c1cccnc1` [Nicotine, (S)-3-[1-methylpyrrolidin-2-yl]pyridine, reference compound]?
**A.** UDysRS part III, Week 10 result; change from baseline, mean [4, 8]: 5.2; UDysRS walking, Week 10 result; change from baseline, mean [4, 8]: 4.4; PGI-C responders (subjects with a score of 1, 2, or 3) ([4]; Visit 4 (Week 10), 21 responders, p = 0.0048 vs placebo): 77.8%; number of LF-ADL responders (subjects with ≥25% reduction from baseline), difference between treatment groups ([4]; Visit 4 (Week 10), p = 0.0453): statistically significant difference; Gait-subtest of the UDysRS versus placebo ([4]; human, in vivo): statistically superior to placebo; patient- and physician-rated assessments of efficacy versus placebo ([4]; human, in vivo): superior to placebo; antidyskinetic effect [5]: did not exert an antidyskinetic effect; worsening of Parkinson symptoms (UPDRS Part III, Hoehn and Yahr scales) [6]: no worsening of Parkinsonian symptoms; worsening of Parkinson symptoms (UPDRS Part III, Hoehn and Yahr scales) ([6]; listed as nicotine): did not cause any worsening of the PD symptoms; subjects who completed the study ([6]; of 35 randomized): 25 subjects; subjects who withdrew because of AEs ([6]; of 35 randomized): 6 subjects; subjects who withdrew because of protocol violations ([6]; of 35 randomized): 2 subjects; subjects who withdrew from the study ([6]; of 35 randomized): 10 subjects; subjects who withdrew because of AEs ([6]; of 35 randomized, listed as nicotine): Six; reduction of LIDs (rats and mice): reduced LIDs; oral bioavailability [7]: approximately 30%

**Q.** Which “reduction of LIDs” value [1] does the source give for `CN[C@@H](C)C/C=C/c1cncc(OC(C)C)c1` [TC-2696] here?
**A.** Its value is “reduced LIDs to varying extents”.

**Q.** For `c1cnc2cc3c(cc2n1)[C@@H]1CNC[C@H]3C1` [Varenicline], which “reduction of LIDs” value [1] is on record?
**A.** The value was “reduced LIDs to varying extents”.

**Q.** With `OCCCCC#Cc1cncc(OC[C@@H]2CCN2)c1` [sazetidine] as the compound, how does the “reduction of LIDs” value [1] read?
**A.** The value was “reduced LIDs to varying extents”.
